{"source": "patent US8748369B2", "about": "“Use of targeted nitroxide agents in bone healing” (University of Pittsburgh-Of the Commonwealth System of …, priority 2009, dated 2014)", "key": {"NOD/SCID mice [1]": {"tested_on": "NOD/SCID mice", "test": "Proposed: human CD34+ cord blood stem cell seeding into irradiated limbs of NOD/SCID mice", "conditions": "mouse, in vivo", "description": "Selection and optimization of a GS-nitroxide JP4-039 therapy to enhance human CD34+ cord blood multilineage hematopoietic stem cell progenitor cell seeding into irradiated limbs of NOD/SCID mice that have been prepared by engraftment of human marrow stromal cells.\n2. Experiments using the optimal seeding protocol for human KM101 cells into irradiated NOD/SCID mice (anticipated to be those mice receiving MnSOD-PL prior to irradiation, and then injection with KM101-MnSOD/ds-red, supplemented with JP4-039 daily). Mice can then receive intravenous injection of 1×10^5 or 1×10^6 CD34+ LIN− cells from human umbilical cord blood origin. Control cells may be CD34+ LIN+ (differentiated progenitor) cells 10^5 or 10^6 per injection. Groups of 12 mice. These experiments may be carried out in two schedules. • a. […]\nIn these experiments, mice can be followed and tested at serial time points out to two months after cord blood stem cell transplantation. The percent of human peripheral blood hematopoietic cells can be scored in weekly peripheral blood samples and number of cells forming CFU-GEMM colonies can be tested in explanted bones from sacrificed mice. […]\nExperiments in vitro supplementing in co-cultivation culture media the drug JP4-039 daily. […] Stromal cell cultures may be irradiated, cord blood cells added, and cultures scored as above. […]"}, "NOD/SCID mice [2]": {"tested_on": "NOD/SCID mice", "test": "Proposed: human marrow stromal cell seeding into irradiated limbs of NOD/SCID mice", "format": "in vivo, mouse", "conditions": "MnSOD-PL prior to cell infusion; JP4-039 daily after cell transplantation", "description": "The following can be used to select and optimize the best GS-nitroxide JP4-039 (radiation damage mitigator drug) that can enhance human bone marrow stromal cell and fresh human stromal cell line seeding efficiency into irradiated limbs of NOD/SCID mice. MnSOD-overexpressing cells are a positive control.\nA. Experiments with KM101-MnSOD/ds-red (control KM101-ds-red) clonal cell lines. Groups of 12 NOD/SCID mice receive 300 cGy total body irradiation (low dose leg) and a 1000 cGy boost to the left hind leg (high dose leg), then 24 hours later intravenous injection of 1×10^5 or 1×10^6 cells of each cell line (groups 1 and 2). Group 3 is mice that receive MnSOD-PL intravenously 24 hours prior to irradiation and then injection of KM101-MnSOD/ds-red. […] This experiment may be conducted essentially as described above (A), with all groups, but with a sub-group receiving JP4-039 (24 hours) after radiation (same day as cell lines are injected, or a sub-group receiving intraperitoneal JP4-039 (daily or weekly after cell line transplantation). Cells may be explanted from the high dose and low dose irradiated femurs at days 7, 14, 21, and cultured in vitro for human stromal colony forming progenitor cells (CFU-F). The percent and total number of human cells entering the high dose and low dose irradiated limbs can be quantitated by cell sorting for ds-red. […]"}, "[3]": {"tested_on": "KM101 human marrow stromal cells", "test": "Irradiation survival curves of KM101 cells", "format": "cell-based", "experimental": "KM101 cells were incubated in media alone or in JP4-039 (10 μM) for one hour before irradiation or 24 hours after irradiation. The cells were irradiated to doses ranging from 0 to 6 Gy and plated in 4 well plates. Seven days later the cells were stained with crystal violet and colonies of greater than 50 cells counted. Cells incubated in JP4-039 either before or after irradiation were more radioresistant as shown by an increased shoulder of n=2.3±0.2 or 2.2±0.2, respectively compared to n of 1.1±0.1for the KM101 cells (p=0.0309 or 0.0386, respectively)."}}}
{"smiles": "CC(C)C[C@@H](/C=C/CC(=O)NC1CC(C)(C)N([O])C(C)(C)C1)NC(=O)OC(C)(C)C", "note": "[JP4-039, (S,E)-5-(tert-Butoxycarbonylamino)-7-methyloct-3-enoic acid-TEMPO]", "values": [{"measurement": "hematopoietic cell survival and CFU-GEMM numbers", "setting": "NOD/SCID mice [1]", "result": "further enhance hematopoietic cell survival and increase CFU-GEMM in numbers"}, {"measurement": "engraftment of KM101 stromal cell lines", "setting": "NOD/SCID mice [2]", "result": "facilitate improved stability of engraftment"}, {"measurement": "n (shoulder on the survival curve)", "setting": "[3]; 10 μM 24 hours after irradiation", "result": "2.2±0.2"}, {"measurement": "change in Do", "setting": "[3]; 10 μM before or after irradiation", "result": "no significant change"}, {"measurement": "n (shoulder on the survival curve)", "setting": "[3]; 10 μM one hour before irradiation", "result": "2.3±0.2"}]}
